How the values were obtained:
male ICR mice = assay: Toxicity test: oral administration to mice, survival and LD50; format: in vivo; conditions: for Number of living mice: among 10 head, observation after two weeks; for LD₅₀ values: oral, mice, in words, compared with the known absorption accelerator
Description: A known absorption accelerator, N-(α-fluoro-4-methylcinnamoyl)-L-phenylalanine, and the two absorption accelerators of this invention were each suspended in 0.5% solution of CMC sodium salt at different concentrations, each suspension was orally administered to male ICR mice of 4-week age ( each group consisting of 10 head ), and LD₅₀ values were measured based on the observations after two weeks. The result is summarized in Table 2, in which the figures show the number of living mice when 1.0 g/Kg and 3.0 g/Kg of the compounds were administered.

[1] = Activity test using mice: oral insulin co-administered with absorption accelerator, blood glucose and blood insulin measured; format: in vivo, female ICR-CDI mice; conditions: insulin 0.5 U/10 g + absorption accelerator 3 mg/10 g, vs control group
Description: Each of the absorption accelerators prepared above was suspended in 0.5% CMC/0.05M Tris-HCl buffer ( pH 7.8 ), insulin was admixed to this suspension, and the resulting mixture was orally administered to a group of female ICR-CDI mice ( five head of 5- to 7-week age ) fasted for 18 hours ( insulin: 0.5 U/10 g, absorption accelerator: 3 mg/10 g ). The rate of reduction in blood glucose (%) and the factor of increase in the insuline level in the blood, in comparison with the data of the control group, were measured at definite intervals.

[2] = Activity test using dogs: oral gelatin capsules of insulin plus absorption accelerator, serum glucose measured; format: in vivo, male beagles; conditions: 50 U/Kg insulin + 25 mg/Kg sodium salt of absorption accelerator, average of two dogs, compared with N-(α-fluoro-4-methylcinnamoyl)-L-phenylalanine
Description: An absorption acceleration test was conducted using dogs to compare the absorption accelerators of this invention with a known absorption accelerator, N-(α-fluoro-4-methylcinnamoyl)-L-phenylalanine.
Gelatin capsules containing 50 U/Kg insulin and 25 mg/Kg sodium salt of absorption accelerator were orally administered to male beagles of 6- to 8-month age fasted for 18 hours. In this test, the same two dogs were used for each of test samples.
A blood sample was taken from each dog at definite intervals from the peripheral vein in a paw, the amount of glucose in the serum was measured, and the average of two head was calculated. The result is sumarized in the figure.

| SMILES | Number of living mice (male ICR mice; 1.0 g/Kg oral) | Number of living mice (male ICR mice; 3.0 g/Kg oral) | LD₅₀ values (male ICR mice) | Factor of increase in blood-insulin level ([1]; 15 minutes) | Rate of reduction in blood glucose level ([1]; 15 minutes) | Factor of increase in blood-insulin level ([1]; 30 minutes) | Rate of reduction in blood glucose level ([1]; 30 minutes) | Rate of reduction in blood glucose level ([1]; 60 minutes) | Factor of increase in blood-insulin level ([1]; 60 minutes, "-" = no increase in blood insulin level was observed) | effect of reducing the glucose level in the serum [2] |
| --- | --- | --- | --- | --- | --- | --- | --- | --- | --- | --- |
| Cc1ccc(C(Cl)=CC(=O)N[C@@H](Cc2ccccc2)C(=O)O)cc1 [N-(β-chloro-4-methylcinnamoyl)-L-phenylalanine] | 10 | 10 | equal to, or higher than, that of the known absorption accelerator | 2) 10.5 | 1) 42.1% | 2) 2.0 | 1) 21.6% | 1) 12.2% | 2) 2.1 | far higher effect of reducing the glucose level in the serum over longer periods |
| Cc1ccc(C=C(F)C(=O)N[C@@H](Cc2ccccc2)C(=O)O)cc1 [N-(α-fluoro-4-methylcinnamoyl)-L-phenylalanine, reference compound] | 10 | 6 |  |  |  |  |  |  |  |  |
| Cc1ccc(C(Cl)=CC(=O)N[C@H](Cc2ccccc2)C(=O)O)cc1 [N-(β-chloro-4-methylcinnamoyl)-D-phenylalanine] | 10 | 6 | equal to, or higher than, that of the known absorption accelerator | 2) 2.1 | 1) 35.7% | 2) 3.3 | 1) 47.8% | 1) 42.8% |  | far higher effect of reducing the glucose level in the serum over longer periods |

From patent EP0317105A2, “Phenylalanine derivative and its uses” (AJINOMOTO CO., INC., priority 1987, dated 1989)
